How the values were obtained:
[1] = target: T1, system Xc^− (Homo sapiens, UniProt Q9UPY5); test: Cystine-induced glutamate release assay; format: cell-based; set-up: endogenous in cells; host or cells: H4 cells; conditions: H4 cells, sodium-free HEPES buffer, 50 μM L-Cystine, 2 hours, Amplex Red glutamate readout; read-out: pIC50 Cystine-induced glutamate release assay (converted)
T1 sequence (Q9UPY5 1-501): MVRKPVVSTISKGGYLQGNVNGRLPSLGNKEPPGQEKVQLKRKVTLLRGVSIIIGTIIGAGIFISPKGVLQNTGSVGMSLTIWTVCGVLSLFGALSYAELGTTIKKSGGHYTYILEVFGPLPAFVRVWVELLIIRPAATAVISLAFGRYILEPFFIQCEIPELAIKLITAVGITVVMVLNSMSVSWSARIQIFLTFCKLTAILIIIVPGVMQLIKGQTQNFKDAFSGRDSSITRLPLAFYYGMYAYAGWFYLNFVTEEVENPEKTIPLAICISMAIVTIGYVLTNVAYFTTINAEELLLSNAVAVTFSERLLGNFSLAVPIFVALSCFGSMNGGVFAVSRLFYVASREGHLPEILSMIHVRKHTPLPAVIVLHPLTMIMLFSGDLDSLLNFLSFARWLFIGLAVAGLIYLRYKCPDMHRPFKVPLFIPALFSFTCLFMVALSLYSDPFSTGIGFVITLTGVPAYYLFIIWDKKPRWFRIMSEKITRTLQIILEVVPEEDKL
T1 sequence (P08195 1-529 partner): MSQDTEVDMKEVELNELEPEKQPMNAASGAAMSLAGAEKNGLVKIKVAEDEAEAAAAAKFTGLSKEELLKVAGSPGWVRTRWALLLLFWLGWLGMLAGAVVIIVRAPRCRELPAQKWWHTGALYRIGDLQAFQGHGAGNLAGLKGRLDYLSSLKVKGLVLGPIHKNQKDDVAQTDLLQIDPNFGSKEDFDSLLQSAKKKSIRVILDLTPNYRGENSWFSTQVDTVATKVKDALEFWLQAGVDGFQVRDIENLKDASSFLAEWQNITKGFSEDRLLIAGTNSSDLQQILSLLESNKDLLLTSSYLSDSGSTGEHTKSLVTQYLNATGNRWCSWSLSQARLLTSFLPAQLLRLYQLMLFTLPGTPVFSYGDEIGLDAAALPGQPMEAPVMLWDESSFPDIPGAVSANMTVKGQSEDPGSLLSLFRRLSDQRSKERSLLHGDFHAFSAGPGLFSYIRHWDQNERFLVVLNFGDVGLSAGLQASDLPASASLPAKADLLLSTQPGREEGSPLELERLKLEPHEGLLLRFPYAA
Summary of the method: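 IC50 (reported as pIC50) normalized to DMSO 1% and Erastin 50 μM controls, from Amplex Red fluorescence of glutamate exported into supernatant. H4 cells were washed into sodium-free buffer to exclude EAAT transport, then given compound with 50 μM L-cystine for 2 h in the incubator.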

[2] = target: T1, system Xc^−; test: [^14C]L-Cystine uptake assay; format: cell-based; set-up: endogenous in cells; host or cells: H4 cells; conditions: H4 cells, sodium-free HEPES buffer, 0.5 μM L-[14C]Cystine and 4.5 μM L-Cystine, 1 hour at 37° C.; read-out: pIC50 [^14C] L-Cystine uptake assay (converted)
Summary of the method: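 Compound effect is given as pIC50, taken between controls of 1% DMSO and 50 μM Erastin. Human H4 cells were pretreated 15 min with compound in sodium-free buffer, then took up 0.5 μM [14C]cystine with 4.5 μM cold cystine for 1 hour at 37° C, read by scintillation proximity counting.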

Cc1cc2c(c(F)n1)-c1cccnc1[C@@H](C)C(=O)N2CC(=O)Nc1ccc2c(c1)nnn2C [#147, 2-[(10R)-3-fluoro-5,10-dimethyl-9-oxo-4,8,12-triazatricyclo[9.4.0.0^2,7]pentadeca-1(11),2(7),3,5,12,14-hexaen-8-yl]-N-(1-methylbenzotriazol-5-yl)acetamide]
IC50 [1]: 39.8 to 100 nM | IC50 [2]: 100 to 501 nM

Cc1cc2c(c(F)n1)-c1cccnc1[C@@H](C)C(=O)N2CC(=O)Nc1ccc2c(cnn2C(F)F)c1 [#148, N-[1-(difluoromethyl)indazol-5-yl]-2-[(10R)-3-fluoro-5,10-dimethyl-9-oxo-4,8,12-triazatricyclo[9.4.0.0^2,7]pentadeca-1(11),2(7),3,5,12,14-hexaen-8-yl]acetamide]
IC50 [1]: 39.8 to 100 nM | IC50 [2]: 15.8 to 39.8 nM

Cc1cc2c(c(F)n1)-c1cccnc1[C@@H](C)C(=O)N2CC(=O)Nc1ccc(C(C)(F)F)cc1 [#149, N-[4-(1,1-difluoroethyl)phenyl]-2-[(10R)-3-fluoro-5,10-dimethyl-9-oxo-4,8,12-triazatricyclo[9.4.0.0^2,7]pentadeca-1(11),2(7),3,5,12,14-hexaen-8-yl]acetamide]
IC50 [1]: 15.8 to 39.8 nM | IC50 [2]: < 15.8 nM

Cc1cc2c(c(F)n1)-c1cccnc1[C@@H](C)C(=O)N2CC(=O)Nc1ccc(Cl)c(Cl)c1 [#150, N-(3,4-dichlorophenyl)-2-[(10R)-3-fluoro-5,10-dimethyl-9-oxo-4,8,12-triazatricyclo[9.4.0.0^2,7]pentadeca-1(11),2(7),3,5,12,14-hexaen-8-yl]acetamide]
IC50 [1]: 39.8 to 100 nM | IC50 [2]: 15.8 to 39.8 nM

Cc1cc2c(c(F)n1)-c1cccnc1[C@@H](C)C(=O)N2CC(=O)Nc1ccc(C(F)F)cc1 [#151]
IC50 [1]: < 15.8 nM | IC50 [2]: < 15.8 nM

Cc1cc2c(c(F)n1)-c1cccnc1C(CO)C(=O)N2CC(=O)Nc1ccc(C(F)(F)F)cc1 (stereo not shown) [#152, 2-[3-fluoro-10-(hydroxymethyl)-5-methyl-9-oxo-4,8,12-triazatricyclo[9.4.0.0^2,7]pentadeca-1(11),2(7),3,5,12,14-hexaen-8-yl]-N-[4-(trifluoromethyl)phenyl]acetamide]
IC50 [1]: 39.8 to 100 nM | IC50 [2]: 15.8 to 39.8 nM

Cc1cc2c(c(C#N)n1)-c1cccnc1CC(=O)N2CC(=O)Nc1ccc(C(F)(F)F)cc1 [#153, 2-(3-cyano-5-methyl-9-oxo-4,8,12-triazatricyclo[9.4.0.0^2,7]pentadeca-1(11),2(7),3,5,12,14-hexaen-8-yl)-N-[4-(trifluoromethyl)phenyl]acetamide]
IC50 [1]: 15.8 to 39.8 nM | IC50 [2]: 15.8 to 39.8 nM

Cc1cc2c(c(C#N)n1)-c1cccnc1C(C)C(=O)N2CC(=O)Nc1ccc(C(F)(F)F)cc1 (stereo not shown) [#154, 2-(3-cyano-5,10-dimethyl-9-oxo-4,8,12-triazatricyclo[9.4.0.0^2,7]pentadeca-1(11),2(7),3,5,12,14-hexaen-8-yl)-N-[4-(trifluoromethyl)phenyl]acetamide]
IC50 [1]: 15.8 to 39.8 nM | IC50 [2]: < 15.8 nM

Cc1cc2c(c(=O)[nH]1)-c1ccccc1C(C)C(=O)N2CC(=O)Nc1ccc(C(F)(F)F)cc1 (stereo not shown) [#156, 2-(3,7-dimethyl-1,6-dioxo-2,7-dihydropyrido[4,3-d][3]benzazepin-5-yl)-N-[4-(trifluoromethyl)phenyl]acetamide]
IC50 [1]: 15.8 to 39.8 nM | IC50 [2]: 39.8 to 100 nM

COc1nc(C)cc2c1-c1cncnc1C(C)C(=O)N2CC(=O)Nc1ccc(C(F)(F)F)cc1 (stereo not shown) [#157, 2-(15-methoxy-8,13-dimethyl-9-oxo-4,6,10,14-tetrazatricyclo[9.4.0.0^2,7]pentadeca-1(11),2(7),3,5,12,14-hexaen-10-yl)-N-[4-(trifluoromethyl)phenyl]acetamide]
IC50 [1]: 15.8 to 39.8 nM | IC50 [2]: < 15.8 nM

Cc1cc2c(c(F)n1)-c1cccnc1[C@@H](C)C(=O)N2CC(=O)Nc1ccc(Br)c(F)c1 [#158, N-(4-bromo-3-fluoro-phenyl)-2-[(10R)-3-fluoro-5,10-dimethyl-9-oxo-4,8,12-triazatricyclo[9.4.0.0^2,7]pentadeca-1(11),2(7),3,5,12,14-hexaen-8-yl]acetamide]
IC50 [1]: 15.8 to 39.8 nM | IC50 [2]: < 15.8 nM

COC1C(=O)N(CC(=O)Nc2ccc(C(F)(F)F)cc2)c2cc(C)nc(Cl)c2-c2cccnc21 (stereo not shown) [#159, 2-(3-chloro-10-methoxy-5-methyl-9-oxo-4,8,12-triazatricyclo[9.4.0.0^2,7]pentadeca-1(11),2(7),3,5,12,14-hexaen-8-yl)-N-[4-(trifluoromethyl)phenyl]acetamide]
IC50 [1]: 39.8 to 100 nM | IC50 [2]: 15.8 to 39.8 nM

Cc1cc2c(c(Cl)n1)-c1cncc(F)c1CC(=O)N2CC(=O)Nc1ccc(C(F)(F)F)cc1 [#160, 2-(3-chloro-12-fluoro-5-methyl-9-oxo-4,8,14-triazatricyclo[9.4.0.0^2,7]pentadeca-1(11),2(7),3,5,12,14-hexaen-8-yl)-N-[4-(trifluoromethyl)phenyl]acetamide]
IC50 [1]: 100 to 501 nM | IC50 [2]: 15.8 to 39.8 nM

Cc1cc2c(c(Cl)n1)-c1cncnc1C(C)C(=O)N2CC(=O)Nc1ccc(C(F)(F)F)cc1 (stereo not shown) [#163, 2-(15-chloro-8,13-dimethyl-9-oxo-4,6,10,14-tetrazatricyclo[9.4.0.0^2,7]pentadeca-1(11),2(7),3,5,12,14-hexaen-10-yl)-N-[4-(trifluoromethyl)phenyl]acetamide]
IC50 [1]: 15.8 to 39.8 nM | IC50 [2]: 15.8 to 39.8 nM

COc1ccc2c(c1)-c1c(cc(C)nc1Cl)N(CC(=O)Nc1ccc(C(F)(F)F)cc1)C(=O)C2C (stereo not shown) [#164, 2-(1-chloro-10-methoxy-3,7-dimethyl-6-oxo-7H-pyrido[4,3-d][3]benzazepin-5-yl)-N-[4-(trifluoromethyl)phenyl]acetamide]
IC50 [1]: 100 to 501 nM | IC50 [2]: 39.8 to 100 nM

Cc1cc2c(c(F)n1)-c1cccc(CO)c1CC(=O)N2CC(=O)Nc1ccc(C(F)(F)F)cc1 [#165, 2-[1-fluoro-8-(hydroxymethyl)-3-methyl-6-oxo-7H-pyrido[4,3-d][3]benzazepin-5-yl]-N-[4-(trifluoromethyl)phenyl]acetamide]
IC50 [1]: 100 to 501 nM | IC50 [2]: 100 to 501 nM

Cc1cc2c(n(C)c1=O)-c1ccccc1N(C)C(=O)N2CC(=O)Nc1ccc(Cl)c(F)c1 [#166, N-(4-chloro-3-fluoro-phenyl)-2-(1,3,7-trimethyl-2,6-dioxo-pyrido[3,2-d][1,3]benzodiazepin-5-yl)acetamide]
IC50 [1]: 15.8 to 39.8 nM | IC50 [2]: 15.8 to 39.8 nM

Cc1nc(C#N)cc2c1-c1cccnc1CC(=O)N2CC(=O)Nc1ccc(C(F)(F)F)cc1 [#167, 2-(5-cyano-3-methyl-9-oxo-4,8,12-triazatricyclo[9.4.0.0^2,7]pentadeca-1(11),2(7),3,5,12,14-hexaen-8-yl)-N-[4-(trifluoromethyl)phenyl]acetamide]
IC50 [1]: 39.8 to 100 nM | IC50 [2]: 15.8 to 39.8 nM

O=C(CN1C(=O)Cc2ncccc2-c2c1cc(Cl)nc2Cl)Nc1ccc(C(F)(F)F)cc1 [#168, 2-(3,5-dichloro-9-oxo-4,8,12-triazatricyclo[9.4.0.0^2,7]pentadeca-1(11),2(7),3,5,12,14-hexaen-8-yl)-N-[4-(trifluoromethyl)phenyl]acetamide]
IC50 [1]: 100 to 501 nM | IC50 [2]: 15.8 to 39.8 nM

CNc1cc2c(c(Cl)n1)-c1cccnc1CC(=O)N2CC(=O)Nc1ccc(C(F)(F)F)cc1 [#169, 2-[3-chloro-5-(methylamino)-9-oxo-4,8,12-triazatricyclo[9.4.0.0^2,7]pentadeca-1(11),2(7),3,5,12,14-hexaen-8-yl]-N-[4-(trifluoromethyl)phenyl]acetamide]
IC50 [1]: 100 to 501 nM | IC50 [2]: 15.8 to 39.8 nM

Source: US20260217708A1, “FUSED BENZAZEPINE DERIVATIVES FOR USE IN THE TREATMENT OF CANCER AND EPILEPSY” (UCB BIOPHARMA SRL, priority 2023, published 2026)
